Values quoted from earlier work as cited in patent US11129554B2, “Sweat monitoring and control of drug delivery” (University Of Cincinnati, priority 2014, dated 2021).

test system: beta-adrenoceptors; details: not given

Compound	beta-blocking activity
CC(C)NCC(O)c1ccc(NS(C)(=O)=O)cc1 [Sotalol D-isomer, Sotalol]	no beta-blocking activity
CC(CCc1ccccc1)NCC(O)c1ccc(O)c(C(N)=O)c1 [Labetalol (R, R) isomer, Labetalol]	potent beta-blocker
COc1ccccc1OCCNCC(O)COc1cccc2[nH]c3ccccc3c12 (stereo not drawn) [Carvedilol S(−) isomer, Carvedilol]	nonselective beta-adrenoceptor blocker
CC(C)NC[C@H](O)COc1cccc2ccccc12 [1-Propranolol]	has beta-adrenoceptors blocking action
CC(C)NC[C@@H](O)COc1cccc2ccccc12 [d-propranolol]	inactive
CC(CCc1ccccc1)NCC(O)c1ccc(O)c(C(N)=O)c1 [Labetalol (R, S) isomer, Labetalol]	relatively inactive
CC(CCc1ccccc1)NCC(O)c1ccc(O)c(C(N)=O)c1 [Labetalol (S, S) isomer, Labetalol]	relatively inactive
OC(CNCC(O)C1CCc2cc(F)ccc2O1)C1CCc2cc(F)ccc2O1 (stereo not shown) [Nebivolol]	highly selectively beta-1-blocking effects
CC(C)NCC(O)c1ccc(NS(C)(=O)=O)cc1 [Sotalol L-isomer, Sotalol]	has beta-blocking activity

test system: alpha-blocking; details: not given

Compound	alpha-blocking activity
S-Timolol	more a potent alpha-blocker than R-timolol
COc1ccccc1OCCNCC(O)COc1cccc2[nH]c3ccccc3c12 (stereo not drawn) [Carvedilol S(−) isomer, Carvedilol]	approximately equally alpha-blocking potency
CC(CCc1ccccc1)NCC(O)c1ccc(O)c(C(N)=O)c1 [Labetalol (S, R) isomer, Labetalol]	potent alpha-blocker
COc1ccccc1OCCNCC(O)COc1cccc2[nH]c3ccccc3c12 (single isomer, unassigned) [Carvedilol R(+) isomer, Carvedilol]	approximately equally alpha-blocking potency

test system: not given; details: in vivo

Compound	half-life
CN1C(=O)CC[C@H]1c1cccnc1 [cotinine]	about 20 hours
COc1ccc2c(c1)[C@]13CCCC[C@@H]1[C@H](C2)N(C)CC3 [DM, Dextromethorphan]	2 to 4 h

test system: not given; details: dye clearance tests

Compound	resolution of excretion in sweat
carboxyethyl-hydroxychroman [CEHC]	2 to 3 min
